Values after ≈ are worked out from the molar mass of the structure shown. Where two headings read alike, the source gives them in different places.
Legend:
HL-60 cells [1] = test: cells; conditions: Homo sapiens
Description: A given number of cells were cultivated in 96-well plates with serial dilutions of the drugs up to 100 ng/ml. Tubulysin A is used as a positive control, whereas methanol is used as a negative control. After 5 days of incubation the metabolic activities of the cells were measured using MTT-assay as described under the methods section.
The effect of pre-tubulysin 816 and 827 was tested with regard to the growth of other cell lines, including the mouse connective tissues fibroblast L929, the human lung carcinoma cell line A549, the human colon adenocarcinoma cell line SW-480, and the human histiocytic lymphoma cell line U937, in addition to the human myeloid leukemia cell line HL-60.

[2] = system: U-2 OS human osteosarcoma cells; test: cells; assay type: cell-based; conditions: Homo sapiens, U2OS, average of two measurements, read-out: IC50
Description: (§1) Cytotoxicity testing of pretubulysin (AU827), N-desmethyl-pretubulysin (AU816) and Tubulysin A and D was performed as follows: Cells were seeded at 6×10^3 cells per well of 96-well plates in 180 μl complete medium and directly treated with varying concentrations of (pre-)tubulysins diluted in methanol. Each compound was tested in duplicate as well as the internal methanol control. After 5 d incubation, 20 μl of 5 mg/ml MTT (Thiazolyl blue tetrazolium bromide) in PBS was added per well and it was further incubated for 2 h at 37° C. The medium was then discarded and cells were washed with 100 μl PBS before adding 100 μl 2-propanol/10 N HCl (250:1) in order to dissolve formazan granules.
(§2) The absorbance at 570 nm was measured using a microplate reader (EL808, Bio-Tek Instruments Inc.), and cell viability was expressed as percentage relative to the respective methanol control. IC50 values were obtained by plotting relative growth inhibition in % against the compound concentration on a logarithmic scale. After sigmoidal curve fitting IC50 values can be determined. The IC50[per ml] are shown in the following table (values represent the average of two measurements):
Similarly cytotoxicity testing of Pretubulysin-related compounds in U-2 OS human osteosarcoma cells was performed and was further compared with AU 339 and AU 954, compounds mentioned in WO2008/106080 and WO2004/046170. The IC50 values are shown in the following table (values represent the average of two measurements): […]

[3] = molecular target: T1, purified microtubules protein isolated from porcine brain (Sus scrofa, UniProt P02550+P02554); test: Turbidometric microtubules protein polymerization assay; assay type: biochemical; conditions: 10 μM microtubules protein, 10 min, 37° C.
T1 construct: Microtubules proteins were purified from porcine brain; from tissue; host or cells: porcine brain
T1 sequence (P02554 whole entry): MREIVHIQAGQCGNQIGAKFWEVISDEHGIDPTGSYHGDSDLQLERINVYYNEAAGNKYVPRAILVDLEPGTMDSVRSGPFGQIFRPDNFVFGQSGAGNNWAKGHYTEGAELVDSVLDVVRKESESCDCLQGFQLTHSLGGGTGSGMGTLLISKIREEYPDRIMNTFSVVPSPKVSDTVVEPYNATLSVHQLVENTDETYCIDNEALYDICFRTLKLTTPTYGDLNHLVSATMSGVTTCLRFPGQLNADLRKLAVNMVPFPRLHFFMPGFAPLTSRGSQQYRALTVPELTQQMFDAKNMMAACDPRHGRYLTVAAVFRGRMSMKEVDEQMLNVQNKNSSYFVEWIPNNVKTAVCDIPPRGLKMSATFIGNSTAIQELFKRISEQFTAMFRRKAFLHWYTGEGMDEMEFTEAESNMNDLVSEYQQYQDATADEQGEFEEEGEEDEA
T1 sequence (P02550 whole entry): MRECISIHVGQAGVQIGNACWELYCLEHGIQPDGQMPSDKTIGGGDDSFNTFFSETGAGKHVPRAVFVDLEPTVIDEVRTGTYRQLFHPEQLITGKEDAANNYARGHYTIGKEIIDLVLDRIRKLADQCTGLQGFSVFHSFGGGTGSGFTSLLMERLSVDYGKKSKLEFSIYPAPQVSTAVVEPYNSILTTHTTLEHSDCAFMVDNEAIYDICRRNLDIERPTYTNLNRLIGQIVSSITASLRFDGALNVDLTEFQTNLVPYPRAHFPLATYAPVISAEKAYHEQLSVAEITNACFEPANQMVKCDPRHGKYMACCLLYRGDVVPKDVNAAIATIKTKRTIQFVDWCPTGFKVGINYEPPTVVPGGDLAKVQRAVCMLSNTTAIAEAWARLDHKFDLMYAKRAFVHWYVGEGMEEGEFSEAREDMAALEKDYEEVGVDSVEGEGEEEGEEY
Description: Tubulin purification: Microtubules proteins were purified from porcine brain by using standard procedures that includes three cycles of temperature-dependent polymerization and de-polymerization, as described elsewhere.
Polymerisation assay: Tubulin polymerisation was monitored by using turbidometry assay (lit). Samples (200 μl, 10 μM tubulin) in PEM polymerisation buffer (0.1 M PIPES, pH 6.6, 1 mM EGTA, 1 mM MgSO4, and 1 mM GTP), were rapidly warmed to 37° C. in a water-jacketed cuvette holder of a diode array photometer (Beckman spectrophotometer DU 7500). Absorbance at 350 nm where monitored in the absence and the presence of the drugs.
10 μM of purified microtubles protein were mixed on ice with 0, 1.7, 3.2, and 6.7 μM pre-tubulysin-816. Microtubules protein polymerization was then monitored for 10 min at 350 nm and 37° C. […] 1.7 μM of the drug was able to inhibit the polymerization of the protein by approximately 20%. Increase the concentration of the drug to 6.7 μM induced an inhibition of the polymerization to 60%.
Therefore, we were interested to test its activity on the polymerization of microtubules in vitro. We first studied its polymerization inhibition potential on microtubules polymerization. 10 μM of purified microtubules protein were mixed on ice with 0, 1, 1.7 and 3.4 μM pre-tubulysin-827 on ice. Microtubules protein polymerization was then monitored for 10 min at 350 nm and 37° C.

HL-60 cells [4] = test: Apoptosis induction, DNA laddering; assay type: cell-based, human; conditions: for apoptosis induction (DNA laddering): HL-60, 24 hours after treatment
Description: Detection of DNA laddering: Apoptotic DNA fragmentation was investigated using the method described by Gong et al. 1-2 μg DNA were loaded into a well of a 1.7% agarose gel, separated by electrophoresis at 4 volts/cm for approximately 4 hours using 0.5×TBE buffer (0.045 M Tris-borate, 1 mM EDTA). The resulting bands were stained by ethidium bromide and detected under UV-light.
Anti-mitotic agents like epothilone (Trivedi, M. et al., Future Oncol. 4, 483-500 (2008)) disorazol (Elnakady, Y. A. et al., Biochem. Pharmacol. 67, 927-935 (2004); Irschik, H. et al., Antibiot. (Tokyo) 48, 31-35 (1995)), and tubulysin (Khalil, M. et al., Chembiochem. 7, 678-683 (2006)) are known to induce apoptosis in different cancer cell lines. A hallmark of apoptosis induced by animitotic agent is the cleavage the chromosomal DNA into distinct fragments which can be separated via gel electrophoresis to give the so called DNA-Ladder. We tested the ability of pre-tubulysin-816 and -827 to induce apoptosis in HL-60 cell lines. Growing cells were treated with different concentrations of the drugs for 24 and 48 hours. After that cells were collected with centrifugation and the chromosomal DNA was separated by using agarose gel electrophoresis as described in the methods section. The resulting DNA bands were stained with ethidium bromide and visualized under UV-light. […] However, the concentration of Pre-tubulysin-816 that was needed to induce apoptosis in HL-60 cells was about 10 folds higher than that of pre-tubulysin-827 under the same experimental conditions. In Summary pre-tubulysins 816 and 827 are novel antimitotic drugs that target the microtubules, induce G2M arrest, and induce apoptosis in cancer cell lines. However, the molecular details of apoptosis induction caused by these Drugs is still to be investigated.

L929 = test: cells; assay type: cell-based, mouse; conditions: Mus musculus; L929, average of two measurements; read-out: IC50
Description: as §1
as §2, with “measurements): […]” for “measurements):”

[5] = comparison with prior art compounds

Compound | IC50 (HL-60 cells [1]; HL-60, 120 h) | IC50 (HL-60 cells [1]; HL-60, read-out: IC50 value) | IC50 [2] | IC50 [2, 5] | inhibition at 1.7 µM ([3]; 1.7 μM drug) | inhibition at 6.7 µM ([3]; 6.7 μM drug, printed as inhibition 'to 60%') | apoptosis induction (DNA laddering) (HL-60 cells [4]) | concentration needed to induce apoptosis relative to pre-tubulysin-827 (HL-60 cells [4]; HL-60, same experimental conditions) | IC50 (L929) | inhibition at 1 µM ([3]; 1 μM drug) | inhibition at 3.4 µM ([3]; 3.4 μM drug)
CC[C@H](C)[C@H](NC(=O)[C@H]1CCCCN1C)C(=O)N(C)[C@H](CCc1nc(C(=O)N[C@H](CCC(=O)O)Cc2ccccc2)cs1)C(C)C [pre-tubulysin-816, N-desmethyl-pretubulysin] | 0.15 ng/mL (≈ 0.229 nM) | 0.15 ng/mL (≈ 0.229 nM) | 3.23 ng/mL (≈ 4.92 nM) | 3.16 ng/mL (≈ 4.82 nM) | ~20% | 60% | able to induce apoptosis | about 10 folds | 40 ng/mL (≈ 60.9 nM) | – | –
CC[C@H](C)[C@H](NC(=O)[C@H]1CCCCN1C)C(=O)N(C)[C@H](CCc1nc(C(=O)N[C@@H](Cc2ccccc2)C[C@H](C)C(=O)O)cs1)C(C)C [pre-tubulysin-827, pretubulysin] | 0.017 ng/mL (≈ 0.0254 nM) | 0.017 ng/mL (≈ 0.0254 nM) | 0.56 ng/mL (≈ 0.836 nM) | 0.56 ng/mL (≈ 0.836 nM) | – | – | able to induce apoptosis | – | 3.87 ng/mL (≈ 5.78 nM) | ~45% | > 85%

From US8791098B2 (priority 2008, dated 2014)
